One data set has as its target hGluN1-FA,TL/hGluN3A (Homo sapiens, UniProt Q05586+Q8TCU5, F484A/T518L). Nature of the data set: Off-target, oocytes, GluN1/GluN3A. The format is cell-based. Particulars: 1 µM compound; 100 µM glycine. The procedure:
(§1) Analysis of Off-target Actions
(§2) Compound (S)-(-)-2i was tested at 1 µM for actions at glycine-activated GluN1/GluN3A (human GluN1-F484A,T518L/GluN3A referred to a GluN1-FA,TL/GluN3A) and rat GluN1-4a/GluN3B in the presence of 0.5 µM CGP-78608. cRNA injection ratios for GluN1/GluN3 were 1:2. Compound (S)-(-)- 2i was also tested for actions at AMPA (rat GluA1, rat GluA2, human GluA3-L531Y), kainate (rat GluK2), nicotinic acetylcholine (rat α7 and α4β2, cRNA ratio 1:1), GABAA (rat α1β2γ2S, cRNA ratio 1:1:1), GABAC (rat ρ1), glycine (rat α1), and purinergic (human P2X) receptors expressed in Xenopus oocytes. cRNA encoding the receptor subunits was synthesized from linear template cDNA using the mMessage mMachine kit (Ambion). Oocytes were injected with 1-5 ng cRNA in a 50 nL volume and incubated in Barth's solution at 15°C for 2-5 days prior to recording. GluK2-expressing oocyte were incubated in 1 mg/ml (10 µM) concanavalin-A for 10 min prior to recording. The cDNAs encoding GABAC and glycine subunits were provided by Dr. D. Weiss (University of Texas Health Science Center at San Antonio). cDNAs encoding nicotinic acetylcholine receptor subunits were provided by Drs. […]
(§3) GABA. […] Responses in presence of test compound were expressed as a percent of control. […]

The subject of a further data set is hGluA3-L531Y. In words: Off-target, oocytes, GluA3. The format is cell-based, human. Particulars: 1 µM compound; 100 µM glutamate. Here is the method: as §1, §2, §3
The next data set deals with hP2x. Nature of the data set: Off-target, oocytes, purinergic receptor. The format is cell-based, human. Particulars: 1 µM compound; 9 µM ATP. The procedure:
as §1, §2, §3

Another data set has as its target T1, -GABAC (Rattus norvegicus, UniProt P50572).
T1 construct: expressed in transfected cells; host or cells: Xenopus oocytes (cRNA injection)
Nature of the data set: Off-target, oocytes, GABAC. The format is cell-based. The note with it: 1 µM compound; 100 µM GABA. The procedure:
as §1, §2, §3

For the next data set, the target named is T2, 1b22-GABA (Rattus norvegicus, UniProt P18508+P62813+P63138).
T2 construct: expressed in transfected cells; host or cells: Xenopus oocytes (cRNA injection, 1:1:1)
Nature of the data set: Off-target, oocytes, GABAA. The format is cell-based. Particulars: 1 µM compound; 100 µM GABA. Here is the method:
as §1, §2, §3

The next data set deals with GluN1/GluN2D (Rattus norvegicus, UniProt Q62645). Details: GluN2B (NM_012574.1), GluN2C (NM_012575.3), and GluN2D (NM_022797.2) were provided by; expressed in transfected cells; host or cells: Xenopus laevis oocytes (cRNA injection). Particulars: cited from earlier work.
For a further data set, the target named is T3, GluN1/GluN2B (Rattus norvegicus, UniProt Q00960).
T3 construct: GluN2B (NM_012574.1), GluN2C (NM_012575.3), and GluN2D (NM_022797.2) were provided by; expressed in transfected cells; host or cells: Xenopus laevis oocytes (cRNA injection)
Details: method as in PMID 23909910. Particulars: reproduced for comparison; cited from earlier work.

A further data set addresses T4, GluN1/GluN2A (Rattus norvegicus, UniProt Q00959).
T4 construct: expressed in transfected cells; host or cells: Xenopus laevis oocytes (cRNA injection)
Details: method as in PMID 23909910. Particulars: reproduced for comparison; cited from earlier work.

For the next data set, the system named is MDCK-MDR1. Details: method as in PMID 23909910. The note with it: cited from earlier work.

GluN1/GluN2D, sequence (Q62645 28-1323, other chains not shown): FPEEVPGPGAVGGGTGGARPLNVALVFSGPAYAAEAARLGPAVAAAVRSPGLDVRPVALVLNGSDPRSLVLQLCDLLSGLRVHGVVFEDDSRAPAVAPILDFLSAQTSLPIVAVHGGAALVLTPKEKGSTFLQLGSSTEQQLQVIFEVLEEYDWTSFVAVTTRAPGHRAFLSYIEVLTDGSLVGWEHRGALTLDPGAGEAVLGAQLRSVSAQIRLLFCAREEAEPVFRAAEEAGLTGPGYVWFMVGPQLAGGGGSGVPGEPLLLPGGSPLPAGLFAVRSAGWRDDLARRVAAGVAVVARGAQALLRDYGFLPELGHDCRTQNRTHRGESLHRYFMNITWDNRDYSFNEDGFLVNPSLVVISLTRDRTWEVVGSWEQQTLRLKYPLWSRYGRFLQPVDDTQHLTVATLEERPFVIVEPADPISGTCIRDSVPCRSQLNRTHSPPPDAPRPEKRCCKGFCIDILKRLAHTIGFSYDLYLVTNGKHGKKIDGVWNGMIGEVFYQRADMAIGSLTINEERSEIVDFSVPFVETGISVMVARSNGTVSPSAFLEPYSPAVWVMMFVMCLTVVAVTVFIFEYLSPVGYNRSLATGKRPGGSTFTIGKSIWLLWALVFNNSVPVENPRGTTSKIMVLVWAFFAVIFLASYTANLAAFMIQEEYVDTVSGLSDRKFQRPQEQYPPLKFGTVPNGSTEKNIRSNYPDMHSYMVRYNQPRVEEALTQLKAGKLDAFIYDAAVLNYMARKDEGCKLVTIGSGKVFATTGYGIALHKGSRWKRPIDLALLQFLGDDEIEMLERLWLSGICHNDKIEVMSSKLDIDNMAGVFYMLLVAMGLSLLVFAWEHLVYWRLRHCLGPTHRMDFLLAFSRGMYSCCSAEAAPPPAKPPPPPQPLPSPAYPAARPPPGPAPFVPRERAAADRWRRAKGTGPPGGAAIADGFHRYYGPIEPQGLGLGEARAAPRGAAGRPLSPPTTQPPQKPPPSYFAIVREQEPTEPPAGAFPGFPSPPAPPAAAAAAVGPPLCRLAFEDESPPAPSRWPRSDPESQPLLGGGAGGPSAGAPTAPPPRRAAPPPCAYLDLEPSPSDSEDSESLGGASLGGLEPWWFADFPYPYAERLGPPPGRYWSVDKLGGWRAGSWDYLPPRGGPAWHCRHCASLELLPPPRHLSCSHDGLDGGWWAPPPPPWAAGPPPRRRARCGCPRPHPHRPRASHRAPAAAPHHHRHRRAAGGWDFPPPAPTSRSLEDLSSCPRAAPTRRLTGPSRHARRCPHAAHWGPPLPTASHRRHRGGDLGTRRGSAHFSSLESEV
T3 sequence (Q00960 27-1482, other chains not shown): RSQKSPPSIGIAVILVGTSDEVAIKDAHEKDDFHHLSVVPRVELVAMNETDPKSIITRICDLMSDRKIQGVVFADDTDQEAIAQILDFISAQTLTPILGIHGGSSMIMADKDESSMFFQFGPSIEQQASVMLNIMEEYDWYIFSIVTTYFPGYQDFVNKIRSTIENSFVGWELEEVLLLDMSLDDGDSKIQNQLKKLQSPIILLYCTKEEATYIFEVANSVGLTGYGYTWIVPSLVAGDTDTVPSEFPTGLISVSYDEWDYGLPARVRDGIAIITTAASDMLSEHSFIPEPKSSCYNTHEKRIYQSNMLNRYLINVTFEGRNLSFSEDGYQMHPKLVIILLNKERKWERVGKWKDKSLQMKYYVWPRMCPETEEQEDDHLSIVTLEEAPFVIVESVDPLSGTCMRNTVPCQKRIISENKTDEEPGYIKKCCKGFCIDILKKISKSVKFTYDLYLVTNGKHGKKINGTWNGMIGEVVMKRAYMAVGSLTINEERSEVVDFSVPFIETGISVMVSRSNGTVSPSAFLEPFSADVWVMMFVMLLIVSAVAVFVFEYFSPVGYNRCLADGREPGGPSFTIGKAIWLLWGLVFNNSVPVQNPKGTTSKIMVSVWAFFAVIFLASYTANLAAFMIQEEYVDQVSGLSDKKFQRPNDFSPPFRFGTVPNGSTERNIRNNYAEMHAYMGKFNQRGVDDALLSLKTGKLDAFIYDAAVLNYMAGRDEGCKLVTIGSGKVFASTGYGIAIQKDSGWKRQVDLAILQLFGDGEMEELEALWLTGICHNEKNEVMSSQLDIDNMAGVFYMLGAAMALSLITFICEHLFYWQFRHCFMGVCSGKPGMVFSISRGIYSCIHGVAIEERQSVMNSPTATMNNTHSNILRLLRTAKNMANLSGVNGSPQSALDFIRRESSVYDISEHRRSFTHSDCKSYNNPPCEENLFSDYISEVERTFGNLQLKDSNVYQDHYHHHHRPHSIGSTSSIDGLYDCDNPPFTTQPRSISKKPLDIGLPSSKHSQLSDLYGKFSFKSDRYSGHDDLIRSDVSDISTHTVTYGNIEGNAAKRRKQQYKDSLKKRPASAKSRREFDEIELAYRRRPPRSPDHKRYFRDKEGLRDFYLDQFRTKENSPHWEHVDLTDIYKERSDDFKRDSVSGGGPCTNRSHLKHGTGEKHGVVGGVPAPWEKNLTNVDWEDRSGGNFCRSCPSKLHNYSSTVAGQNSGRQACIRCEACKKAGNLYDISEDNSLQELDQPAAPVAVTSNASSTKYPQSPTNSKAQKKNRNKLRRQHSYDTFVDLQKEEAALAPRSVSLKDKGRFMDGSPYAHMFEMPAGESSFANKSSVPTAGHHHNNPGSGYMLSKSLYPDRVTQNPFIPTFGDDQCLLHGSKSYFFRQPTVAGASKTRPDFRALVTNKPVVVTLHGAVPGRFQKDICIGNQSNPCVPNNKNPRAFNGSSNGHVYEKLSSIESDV
T2 sequence (P62813 28-455): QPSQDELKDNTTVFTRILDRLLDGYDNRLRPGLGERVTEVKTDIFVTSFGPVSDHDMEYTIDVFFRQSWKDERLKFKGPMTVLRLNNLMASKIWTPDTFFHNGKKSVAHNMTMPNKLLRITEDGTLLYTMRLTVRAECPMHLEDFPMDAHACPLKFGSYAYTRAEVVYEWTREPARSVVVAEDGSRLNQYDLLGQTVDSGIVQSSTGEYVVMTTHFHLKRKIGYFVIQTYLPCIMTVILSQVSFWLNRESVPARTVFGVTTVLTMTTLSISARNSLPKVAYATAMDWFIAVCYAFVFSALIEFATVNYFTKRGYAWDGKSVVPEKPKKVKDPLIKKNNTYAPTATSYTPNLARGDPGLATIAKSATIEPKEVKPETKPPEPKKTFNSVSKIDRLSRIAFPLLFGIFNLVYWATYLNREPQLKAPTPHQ
T2 sequence (P63138 25-474 limits assumed): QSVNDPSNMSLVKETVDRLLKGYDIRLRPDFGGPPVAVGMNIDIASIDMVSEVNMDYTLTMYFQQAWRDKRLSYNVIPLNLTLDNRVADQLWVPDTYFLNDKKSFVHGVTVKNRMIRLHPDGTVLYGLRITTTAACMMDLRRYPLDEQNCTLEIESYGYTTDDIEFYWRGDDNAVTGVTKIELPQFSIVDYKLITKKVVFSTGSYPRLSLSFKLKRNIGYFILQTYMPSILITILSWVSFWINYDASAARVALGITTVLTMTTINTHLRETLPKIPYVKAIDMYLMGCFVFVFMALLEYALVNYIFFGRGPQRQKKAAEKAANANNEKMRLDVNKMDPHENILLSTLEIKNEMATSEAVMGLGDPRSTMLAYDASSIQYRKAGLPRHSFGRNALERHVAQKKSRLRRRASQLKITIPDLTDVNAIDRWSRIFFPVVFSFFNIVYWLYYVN
T2 sequence (P18508 39-466): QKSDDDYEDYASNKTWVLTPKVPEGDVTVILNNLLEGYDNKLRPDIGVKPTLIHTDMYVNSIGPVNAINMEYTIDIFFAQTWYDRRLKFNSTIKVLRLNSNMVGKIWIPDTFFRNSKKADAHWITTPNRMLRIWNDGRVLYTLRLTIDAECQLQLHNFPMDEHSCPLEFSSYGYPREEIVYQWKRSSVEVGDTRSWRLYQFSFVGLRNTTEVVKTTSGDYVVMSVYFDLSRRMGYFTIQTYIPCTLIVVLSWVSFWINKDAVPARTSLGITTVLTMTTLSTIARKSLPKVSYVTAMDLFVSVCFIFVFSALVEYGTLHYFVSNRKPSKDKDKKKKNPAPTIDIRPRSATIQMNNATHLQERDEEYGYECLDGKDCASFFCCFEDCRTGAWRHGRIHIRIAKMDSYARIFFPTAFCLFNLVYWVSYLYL
T1 sequence (P50572 22-480): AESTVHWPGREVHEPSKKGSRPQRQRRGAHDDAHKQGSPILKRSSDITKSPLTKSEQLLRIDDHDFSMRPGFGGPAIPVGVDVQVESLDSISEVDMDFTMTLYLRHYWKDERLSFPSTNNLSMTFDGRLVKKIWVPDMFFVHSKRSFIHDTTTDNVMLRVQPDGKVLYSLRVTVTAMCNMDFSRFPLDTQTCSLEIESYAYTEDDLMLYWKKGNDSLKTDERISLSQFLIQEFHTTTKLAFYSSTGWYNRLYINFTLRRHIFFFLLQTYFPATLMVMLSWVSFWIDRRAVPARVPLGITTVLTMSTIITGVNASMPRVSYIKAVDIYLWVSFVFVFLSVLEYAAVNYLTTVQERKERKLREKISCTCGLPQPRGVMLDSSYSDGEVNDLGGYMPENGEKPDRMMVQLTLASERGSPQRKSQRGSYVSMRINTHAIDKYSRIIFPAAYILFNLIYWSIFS

Regarding `O=C(O)CC(F)(F)C(=O)N1N=C(c2c(-c3ccc(Cl)cc3)c3ccccc3[nH]c2=O)C[C@H]1c1ccc(Cl)cc1` [(S)-(−)-2i], the “% control hGluN1-FA,TL/hGluN3A” value at hGluN1-FA,TL/hGluN3A amounted to 95 ± 2.3%. Also, in the data set on hGluA3-L531Y, the “% control hGluA3-L531Y” value is on record as 105 ± 1.2%. Moreover, in the data set with hP2x, the “% control hP2x” value was determined as 108 ± 0.53%. In addition, the “% control -GABAC” value at -GABAC is listed as 96 ± 1.2%. Also, the “% control 1b22-GABA” value at 1b22-GABA worked out at 85 ± 2.0%.
Consider `O=C(O)CCC(=O)N1N=C(c2c(-c3ccc(Cl)cc3)c3ccccc3[nH]c2=O)CC1c1ccc(Cl)cc1` (stereo not drawn) [2a], for which, on GluN1/GluN2D (30 μM, reproduced for comparison), the “I 30 μM / I control GluN2D” value was 2.0 ± 1.0 (2,5) %. Moreover, at GluN1/GluN2D (GluN2D over GluN2A), the “Selectivity 2A IC50 / 2D IC50” value is recorded as 48 fold. In addition, the “Selectivity 2B IC50 / 2D IC50” value on GluN1/GluN2D (GluN2D over GluN2B) is listed as 50 fold. The “I 30 μM / I control GluN2B” value on GluN1/GluN2B is given as 44 ± 1.6 (2,8) %. Also, the “I 30 μM / I control GluN2A” value on GluN1/GluN2A is listed as 37 ± 4.6 (2,10) %. In the data set with MDCK-MDR1 (cell-membrane permeability), the Papp is on record as 0.47 × 10^–6 cm/s. Besides, in the data set on MDCK-MDR1, the “P-glycoprotein (P-gp)-mediated efflux ratio (ER)” value is 55.

(Values after publication PMC10485906, “Development of a Dihydroquinoline–Pyrazoline GluN2C/2D-Selective Negative Allosteric Modulator of the N-Methyl-D-aspartate Receptor” (ACS Chemical Neuroscience, 2023).)
